Laboratory results published in ChEMBL document CHEMBL1201862, “PubChem BioAssay data set” (2004).
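Step 1: Grow cells in 96-well plates. Step 2: Expose to compound for 48 hours at 5 concentrations. Step 3: Interpolate endpoints linearly; if unreached, use highest concentration. At the GI50, growth is halved.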 Active and inactive are the calls of the source. Rule as the data show it: active = GI50 up to about 1.1 µM and inactive = higher.

Tests used:
Assay in all cases: NCI-60 cell line screen, 48 h
NCI-H226 = test system: NCI-H226
SN12C = test system: SN12C
DMS-273 = test system: DMS-273
SK-MEL-5 = test system: SK-MEL-5
786-0 = test system: 786-0
KM-20L2 = test system: KM-20L2
HOP-92 = test system: HOP-92
K562 = test system: K562
CAKI-1 = test system: CAKI-1
SW-620 = test system: SW-620
NCI-H522 = test system: NCI-H522
SF-268 = test system: SF-268
LXFL 529 = test system: LXFL 529
SK-MEL-28 = test system: SK-MEL-28
M19-MEL = test system: M19-MEL
M14 = test system: M14
SF-539 = test system: SF-539
HT-29 = test system: HT-29
OVCAR-5 = test system: OVCAR-5
ACHN = test system: ACHN
SK-OV-3 = test system: SK-OV-3
NCI-H23 = test system: NCI-H23
KM12 = test system: KM12
RXF 631 = test system: RXF 631
A549 = test system: A549
OVCAR-4 = test system: OVCAR-4
SNB-75 = test system: SNB-75
HOP-62 = test system: HOP-62
HCC 2998 = test system: HCC 2998
EKVX = test system: EKVX
RPMI-8226 = test system: RPMI-8226
OVCAR-3 = test system: OVCAR-3
DLD-1 = test system: DLD-1
UACC-257 = test system: UACC-257
NCI-H460 = test system: NCI-H460
Malme-3M = test system: Malme-3M
SR = test system: SR
UACC-62 = test system: UACC-62
SK-MEL-2 = test system: SK-MEL-2
U-251 = test system: U-251
MOLT-4 = test system: MOLT-4
COLO 205 = test system: COLO 205
IGROV-1 = test system: IGROV-1
UO-31 = test system: UO-31
XF498 = test system: XF498
OVCAR-8 = test system: OVCAR-8
SNB-78 = test system: SNB-78
CCRF-CEM = test system: CCRF-CEM
SNB-19 = test system: SNB-19
DMS-114 = test system: DMS-114
HCT-116 = test system: HCT-116

Measured: GI50

COc1ccc(CCc2cc(OC)c(O)c(OC)c2)cc1
inactive: NCI-H226 41.8 µM | SN12C > 100 µM | DMS-273 46.5 µM | SK-MEL-5 32.8 µM | 786-0 > 100 µM | KM-20L2 > 100 µM | HOP-92 66.8 µM | K562 33 µM | CAKI-1 42 µM | SW-620 37.4 µM | NCI-H522 29.7 µM | SF-268 73.5 µM | LXFL 529 54.8 µM | SK-MEL-28 19.6 µM | M19-MEL 57.1 µM | M14 77.3 µM | SF-539 60.7 µM | HT-29 41 µM | OVCAR-5 44 µM | ACHN 80.5 µM | SK-OV-3 > 100 µM | NCI-H23 37.2 µM | KM12 58.2 µM | RXF 631 88.1 µM | A549 47.1 µM | OVCAR-4 81.5 µM | SNB-75 29.4 µM | HOP-62 98.6 µM | HCC 2998 52 µM | EKVX > 100 µM | RPMI-8226 50.8 µM | OVCAR-3 79.4 µM | DLD-1 60.1 µM | UACC-257 29.3 µM | NCI-H460 82 µM | Malme-3M 74.1 µM | SR 37.3 µM | UACC-62 69 µM | SK-MEL-2 53 µM | U-251 41.8 µM | MOLT-4 35.7 µM | COLO 205 > 100 µM | IGROV-1 > 100 µM | UO-31 42.6 µM | XF498 79.4 µM | OVCAR-8 > 100 µM | SNB-78 30.9 µM | CCRF-CEM 77.1 µM | SNB-19 98.6 µM | DMS-114 29 µM | HCT-116 59 µM
